For series [1], the system named is sheep red blood cells (RBCs). The settings on record: compared to the PBS control.
Procedure: For hemolysis assays, 100 μL of sheep red blood cells (RBCs) were washed three times in cold PBS (Thermo Fischer). Washed cells were resuspended in 25 mL of PBS. Triton, PBS, or peptide in 10% DMSO/PBS were added to 180 μL of resuspended RBCs and incubated at 37° C. for 1 h. Samples were read at 450 nm. Data was expressed as percent hemolysis by relativizing to the Triton and PBS controls.
Another series relates to E. coli BL-21. It is filed as cell-based, Escherichia coli.
The subject of series [2] is Streptococcus pyogenes M1T1. The source says:
(§1) E. coli BL-21 frozen stock culture was purchased from Thermo Fischer. Pseudomonas aeruginosa PAO1 frozen stock culture was obtained from the Shrout Laboratory at the University of Notre Dame. Pseudomonas syringae frozen stock culture was obtained from the Innes Laboratory at Indiana University. Xanthomonas axonopodis pathovar Starr and Garces pathovar phaseoli (ATCC 9563) frozen stock culture was purchased from the ATCC. Streptococcus pyogenes M1T1 frozen stock culture was obtained from the lab of Dr. Victor Nizet, University of California San Diego. A methicillin resistant Staphylococcus aureus JKD frozen stock culture was obtained from the lab of Dr. Timothy Stinear, University of Melbourne.
(§2) The E. coli, P. aeruginosa, and P. syringae bacterial strains were routinely grown in LB broth (EMD Chemicals, Gibbstown, N.J.). S. aureus and S. pyogenes were routinely grown in Todd Hewitt broth (Neogen Corporation, Lansing, Mich.). X. axonopodis was routinely grown in Nutrient Broth (Sigma-Aldrich Co., St. Louis, Mo.). P. syringae and X. axonopodis were grown at room temperature without agitation. All other bacteria were grown at 37° C. with agitation.
(§3) Overnight bacterial cultures were diluted to an OD of 0.01. […] and 10 μL of 10× peptide or vehicle were added to the wells of a 96-well microtiter plate for a final 1× concentration. Bacteria were grown in desired growth conditions in a Synergy H1 Microplate Reader (Biotek, Winooski, Vt.). For MIC, serial two-fold dilutions of the peptides were used. MIC was determined as the concentration of peptide that prevented overnight growth as indicated by OD 600. For peptide screening, 8 μM or 4 μM peptide was screened against various bacteria. Peptides that inhibited overnight growth were selected for further study.

The test system of series [3] is Pseudomonas aeruginosa PAO1.
Source text: as §1, §2, §3

Values after ≈ are worked out from the molar mass of the structure shown. Residues, ends and D or L forms follow the SMILES beside them.

These results are taken from patent publication US20210130417A1, “SYSTEMS AND METHODS FOR DESIGNING SYNTHETIC ANTIMICROBIAL PEPTIDES” (University of Notre Dame du Lac, priority 2017, published 2021).

Procedure for E. coli BL-21: The E. coli, P. aeruginosa, and P. syringae bacterial strains were routinely grown in LB broth (EMD Chemicals, Gibbstown, N.J.). […] All other bacteria were grown at 37° C. with agitation.
Overnight bacterial cultures were diluted to an OD of 0.01. μL of diluted culture and 10 μL of 10× peptide or vehicle were added to the wells of a 96-well microtiter plate for a final 1× concentration. Bacteria were grown in desired growth conditions in a Synergy H1 Microplate Reader (Biotek, Winooski, Vt.). For MIC, serial two-fold dilutions of the peptides were used. MIC was determined as the concentration of peptide that prevented overnight growth as indicated by OD 600.

As for `CC[C@H](C)[C@H](NC(=O)[C@H](CCCCN)NC(=O)[C@H](CCC(=O)O)NC(=O)[C@H](CCCCN)NC(=O)[C@H](Cc1c[nH]c2ccccc12)NC(=O)[C@H](C)N)C(=O)N[C@@H](CCCNC(=N)N)C(=O)N[C@@H](CCC(N)=O)C(=O)N[C@@H](Cc1ccc(O)cc1)C(=O)N[C@@H](CC(C)C)C(=O)N[C@@H](CCCCN)C(=O)N[C@@H](CC(N)=O)C(=O)N[C@@H](CCC(=O)O)C(=O)N[C@H](C(=O)N[C@@H](CCCCN)C(=O)N[C@@H](CCCCN)C(=O)N[C@@H](CCCCN)C(=O)N[C@@H](Cc1c[nH]c2ccccc12)C(=O)N[C@@H](CCCNC(=N)N)C(=O)N[C@@H](CCCCN)C(=O)N[C@@H](C)C(=O)N[C@H](C(=O)N[C@H](C(=O)N[C@@H](C)C(=O)N[C@@H](Cc1c[nH]c2ccccc12)C(=O)O)[C@@H](C)CC)C(C)C)[C@@H](C)CC` [Peptide 93] (H-AWKEKIRQYLKNEIKKKWRKAVIAW-OH), the “hemolysis of library peptides” value in series [1] is on record as “low levels of hemolysis at higher concentrations”. Moreover, the “MIC E. coli” value against E. coli BL-21 is 1 µM (≈ 3.21 µg/mL). Further, the “MIC S. pyogenes” value in series [2] is 8 µM.
As for `CC[C@H](C)[C@H](NC(=O)[C@H](CCCCN)NC(=O)[C@H](CC(N)=O)NC(=O)[C@H](CCCCN)NC(=O)[C@H](CC(C)C)NC(=O)[C@H](Cc1ccc(O)cc1)NC(=O)[C@H](CCC(N)=O)NC(=O)[C@H](CCCNC(=N)N)NC(=O)[C@@H](NC(=O)[C@@H](NC(=O)[C@H](CCCCN)NC(=O)[C@H](CCCCN)NC(=O)CNC(=O)[C@H](C)N)[C@@H](C)O)[C@@H](C)CC)C(=O)N[C@@H](CCCCN)C(=O)N[C@@H](CCCCN)C(=O)N[C@@H](CCCCN)C(=O)N[C@@H](Cc1c[nH]c2ccccc12)C(=O)N[C@@H](CCCNC(=N)N)C(=O)N[C@@H](CCCCN)C(=O)N[C@@H](C)C(=O)N[C@H](C(=O)N[C@H](C(=O)N[C@@H](C)C(=O)N[C@@H](Cc1c[nH]c2ccccc12)C(=O)O)[C@@H](C)CC)C(C)C` [Peptide 52] (H-AGKKTIRQYLKNKIKKKWRKAVIAW-OH), the “hemolysis of library peptides” value in series [1] is recorded as “low levels of hemolysis at higher concentrations”. For the same molecule, in the series with E. coli BL-21, the “MIC E. coli” value worked out at 8 µM (≈ 24.5 µg/mL). For the same molecule, the “MIC P. aeruginosa” value in series [3] turned out to be 10 µM. Further, in series [2], the “MIC S. pyogenes” value came out at 8 µM.
Take `CC[C@H](C)[C@H](NC(=O)[C@H](CCC(=O)O)NC(=O)[C@H](CC(N)=O)NC(=O)[C@H](CCCCN)NC(=O)[C@H](CC(C)C)NC(=O)[C@H](Cc1ccc(O)cc1)NC(=O)[C@H](CCC(N)=O)NC(=O)[C@H](CCCNC(=N)N)NC(=O)[C@@H](NC(=O)[C@@H](NC(=O)[C@H](CCCCN)NC(=O)[C@H](CCCCN)NC(=O)[C@H](Cc1c[nH]c2ccccc12)NC(=O)[C@H](C)N)[C@@H](C)O)[C@@H](C)CC)C(=O)N[C@@H](CCCCN)C(=O)N[C@@H](CCCCN)C(=O)N[C@@H](CCCCN)C(=O)N[C@@H](Cc1c[nH]c2ccccc12)C(=O)N[C@@H](CCCNC(=N)N)C(=O)N[C@@H](CCCCN)C(=O)N[C@@H](C)C(=O)N[C@H](C(=O)N[C@H](C(=O)N[C@@H](C)C(=O)N[C@@H](Cc1c[nH]c2ccccc12)C(=O)O)[C@@H](C)CC)C(C)C` [Peptide 90] (H-AWKKTIRQYLKNEIKKKWRKAVIAW-OH): the “hemolysis of library peptides” value in series [1] is “low levels of hemolysis at higher concentrations”. The “MIC E. coli” value in the series with E. coli BL-21 was 2 µM (≈ 6.37 µg/mL). Also, the “MIC S. pyogenes” value in series [2] was determined as 8 µM.
With `CC[C@H](C)[C@H](NC(=O)[C@H](CCCCN)NC(=O)[C@H](CC(N)=O)NC(=O)[C@H](CCCCN)NC(=O)[C@H](CC(C)C)NC(=O)[C@H](Cc1ccc(O)cc1)NC(=O)[C@H](CCC(N)=O)NC(=O)[C@H](CCCNC(=N)N)NC(=O)[C@@H](NC(=O)[C@@H](NC(=O)[C@H](CCCCN)NC(=O)[C@H](CCCCN)NC(=O)CNC(=O)[C@H](C)N)[C@@H](C)O)[C@@H](C)CC)C(=O)N[C@@H](CCCCN)C(=O)N[C@@H](CCCCN)C(=O)N[C@@H](CCCCN)C(=O)NCC(=O)N[C@@H](CCCNC(=N)N)C(=O)N[C@@H](CCCCN)C(=O)N[C@@H](Cc1c[nH]c2ccccc12)C(=O)N[C@H](C(=O)N[C@H](C(=O)N[C@@H](C)C(=O)N[C@@H](Cc1c[nH]c2ccccc12)C(=O)O)[C@@H](C)CC)C(C)C` [Peptide 60] (H-AGKKTIRQYLKNKIKKKGRKWVIAW-OH), the “hemolysis of library peptides” value in series [1] is recorded as “no significant changes in hemolysis”.
For the molecule `CC[C@H](C)[C@H](NC(=O)[C@H](CCCCN)NC(=O)[C@H](CC(N)=O)NC(=O)[C@H](CCCCN)NC(=O)[C@H](CC(C)C)NC(=O)[C@H](Cc1ccc(O)cc1)NC(=O)[C@H](CCC(N)=O)NC(=O)[C@H](CCCNC(=N)N)NC(=O)[C@@H](NC(=O)[C@@H](NC(=O)[C@H](CCCCN)NC(=O)[C@H](CCCCN)NC(=O)[C@H](Cc1c[nH]c2ccccc12)NC(=O)[C@H](C)N)[C@@H](C)O)[C@@H](C)CC)C(=O)N[C@@H](CCCCN)C(=O)N[C@@H](CCCCN)C(=O)N[C@@H](CCCCN)C(=O)N[C@@H](Cc1c[nH]c2ccccc12)C(=O)N[C@@H](CCCNC(=N)N)C(=O)N[C@@H](CCCCN)C(=O)N[C@@H](C)C(=O)N[C@H](C(=O)N[C@H](C(=O)N[C@@H](C)C(=O)N[C@@H](Cc1c[nH]c2ccccc12)C(=O)O)[C@@H](C)CC)C(C)C` [Peptide 92] (H-AWKKTIRQYLKNKIKKKWRKAVIAW-OH), the “hemolysis of library peptides” value in series [1] is listed as “no significant changes in hemolysis”. The “MIC E. coli” value against E. coli BL-21 came to 4 µM (≈ 12.7 µg/mL). Moreover, in series [2], the “MIC S. pyogenes” value was determined as 8 µM.
For the molecule `CC[C@H](C)[C@H](NC(=O)[C@H](CCC(=O)O)NC(=O)[C@H](CC(N)=O)NC(=O)[C@H](CCCCN)NC(=O)[C@H](CC(C)C)NC(=O)[C@H](Cc1ccc(O)cc1)NC(=O)[C@H](CCCCN)NC(=O)[C@H](CCCNC(=N)N)NC(=O)[C@@H](NC(=O)[C@@H](NC(=O)[C@H](CCC(=O)O)NC(=O)[C@H](CCCCN)NC(=O)[C@H](Cc1c[nH]c2ccccc12)NC(=O)[C@H](C)N)[C@@H](C)O)[C@@H](C)CC)C(=O)N[C@@H](CCCCN)C(=O)N[C@@H](CCCCN)C(=O)N[C@@H](CCCCN)C(=O)N[C@@H](Cc1c[nH]c2ccccc12)C(=O)N[C@@H](CCCNC(=N)N)C(=O)N[C@@H](CCCCN)C(=O)N[C@@H](C)C(=O)N[C@H](C(=O)N[C@H](C(=O)N[C@@H](C)C(=O)N[C@@H](Cc1c[nH]c2ccccc12)C(=O)O)[C@@H](C)CC)C(C)C` [Peptide 94] (H-AWKETIRKYLKNEIKKKWRKAVIAW-OH), the “hemolysis of library peptides” value in series [1] was “low levels of hemolysis at higher concentrations”. In the series with E. coli BL-21, the “MIC E. coli” value came to 2 µM (≈ 6.38 µg/mL). Besides, the “MIC P. aeruginosa” value in series [3] came out at 8 µM. Besides, the “MIC S. pyogenes” value in series [2] came to 10 µM.
For `CC[C@H](C)[C@H](NC(=O)[C@H](CCCCN)NC(=O)[C@H](CC(N)=O)NC(=O)[C@H](CCCCN)NC(=O)[C@H](CC(C)C)NC(=O)[C@H](Cc1ccc(O)cc1)NC(=O)[C@H](CCC(N)=O)NC(=O)[C@H](CCCNC(=N)N)NC(=O)[C@@H](NC(=O)[C@@H](NC(=O)[C@H](CCCCN)NC(=O)[C@H](CCCCN)NC(=O)[C@H](Cc1c[nH]c2ccccc12)NC(=O)[C@H](C)N)[C@@H](C)O)[C@@H](C)CC)C(=O)N[C@@H](CCCCN)C(=O)N[C@@H](CCCCN)C(=O)N[C@@H](CCCCN)C(=O)NCC(=O)N[C@@H](CCCNC(=N)N)C(=O)N[C@@H](CCCCN)C(=O)N[C@@H](C)C(=O)N[C@H](C(=O)N[C@H](C(=O)N[C@@H](C)C(=O)N[C@@H](Cc1c[nH]c2ccccc12)C(=O)O)[C@@H](C)CC)C(C)C` [Peptide 20] (H-AWKKTIRQYLKNKIKKKGRKAVIAW-OH), the “hemolysis of library peptides” value in series [1] was “no significant changes in hemolysis”. For the same molecule, the “MIC E. coli” value with E. coli BL-21 turned out to be 8 µM (≈ 24.5 µg/mL). Also, the “MIC P. aeruginosa” value in series [3] came to 10 µM. For the same molecule, the “MIC S. pyogenes” value in series [2] stood at 8 µM.
With `CC[C@H](C)[C@H](NC(=O)[C@H](CCCCN)NC(=O)[C@H](CC(N)=O)NC(=O)[C@H](CCCCN)NC(=O)[C@H](CC(C)C)NC(=O)[C@H](Cc1ccc(O)cc1)NC(=O)[C@H](CCC(N)=O)NC(=O)[C@H](CCCNC(=N)N)NC(=O)[C@@H](NC(=O)[C@@H](NC(=O)[C@H](CCC(=O)O)NC(=O)[C@H](CCCCN)NC(=O)[C@H](Cc1c[nH]c2ccccc12)NC(=O)[C@H](C)N)[C@@H](C)O)[C@@H](C)CC)C(=O)N[C@@H](CCCCN)C(=O)N[C@@H](CCCCN)C(=O)N[C@@H](CCCCN)C(=O)N[C@@H](Cc1c[nH]c2ccccc12)C(=O)N[C@@H](CCCNC(=N)N)C(=O)N[C@@H](CCCCN)C(=O)N[C@@H](C)C(=O)N[C@H](C(=O)N[C@H](C(=O)N[C@@H](C)C(=O)N[C@@H](Cc1c[nH]c2ccccc12)C(=O)O)[C@@H](C)CC)C(C)C` [Peptide 91] (H-AWKETIRQYLKNKIKKKWRKAVIAW-OH), the “hemolysis of library peptides” value in series [1] was “low levels of hemolysis at higher concentrations”. For the same molecule, the “MIC E. coli” value with E. coli BL-21 amounted to 2 µM (≈ 6.37 µg/mL). The “MIC S. pyogenes” value in series [2] turned out to be 10 µM.
